In PMC4855620, “Structure‐activity relationship of the peptide binding‐motif mediating the BRCA2:RAD51 protein–protein interaction” (Febs Letters, 2016):
“Also recorded” adds a separate entry of the source. Read-outs that look alike come from different tables or passages of the source. Residues, ends and D or L forms follow the SMILES beside them.

What was measured:
[1] = biological target: HumRadA2 (humanised, monomeric RadA; surrogate for RAD51) (Pyrococcus furiosus, UniProt O74036); test: Isothermal titration calorimetry of peptides against HumRadA2; assay type: binding; details: for ΔH: Tris pH 7.5, 100 mM NaCl, low c-value conditions, ± = model-fitting error; for TΔS: ΔS derived from ΔG by subtracting ΔH; for Change in binding affinity relative to FHTA: ITC K D compared with FHTA
Protocol: Protein expression and purification was performed as described previously 15. In brief, monomeric HumRadA2 was expressed in E. coli using T7‐based expression vector at 37 °C for 3 h. Soluble cell lysate was heat treated to precipitate most of the cellular proteins and the soluble fraction containing HumRadA2 was purified using a combination of cation exchange chromatography at pH 6.0 and size‐exclusion chromatography in 10 mM MES, 100 mM NaCl pH 6.0 buffer. Protein concentration was determined using the calculated extinction coefficient at 280 nm, and stored at −80 °C in small aliquots after flash freezing.
Isothermal titration calorimetry experiments were performed at 25 °C on a MicroCal iTC200. HumRadA2 (600 μM in 20 mM MES pH 6.0 with 100 mM NaCl and 0.5 mM EDTA) was diluted with Tris buffer (200 mM, pH 7.5 with 100 mM NaCl) to 64–83 μM. […] The peptide solution was titrated into the protein solution; 16 injections (2.4 μL) of 4.8 s duration were made at 80‐s intervals. The initial injection of ligand (0.4 μL) was discarded during data analysis. […] The data were processed and thermodynamic parameters obtained by fitting the data to a single‐site‐binding model using Origin software and fixing the stoichiometry as 1.0 for weak‐binding ligands 16.

[2] = biological target: HumRadA2 (humanised, monomeric RadA from Pyrococcus furiosus) (Pyrococcus furiosus) (UniProt O74036); test: ITC; peptide (2.5-5 mM) titrated into HumRadA2 (64-83 μM) at 25 °C, MicroCal iTC200, 200 mM Tris pH 7.5, 100 mM NaCl; single-site model, stoichiometry fixed as 1.0 for weak-binding ligands; low c-value conditions
RAD51 = RAD51 oligomerisation sequence FTTA mutated; cited from earlier work
Source text: Table 1 Summary of FxxA‐relevant mutations previously reported and degree of characterisation. The mutation, relevant peptide context, resulting FxxA motif sequence and experimental technique for each entry is given. For clarity, mutated residues are shown in bold | column: Effect

[3] = biological target: HumRadA2 (humanised, monomeric RadA from Pyrococcus furiosus) (Pyrococcus furiosus) (UniProt O74036); test: ITC; peptide (2.5-5 mM) titrated into HumRadA2 (64-83 μM) at 25 °C, MicroCal iTC200, 200 mM Tris pH 7.5, 100 mM NaCl; single-site model, stoichiometry fixed as 1.0 for weak-binding ligands; low c-value conditions; remark: listed apart in the source
[4] = ITC, 25 °C, MicroCal iTC200, peptide 2.5–5 mM in 200 mM Tris pH 7.5, 100 mM NaCl titrated into 64–83 μM HumRadA2, single-site model, stoichiometry fixed at 1.0 for weak binders, ± = fitting error

Row | dH [2] [cal/mol] | Molecule | ΔH ([1]; ITC, 25 °C) [cal/mol] | TΔS ([1]; ITC, 25 °C) [cal/mol] | Kd [1, 4] [µM] | further results
1 |  | CC(=O)N[C@@H](Cc1ccccc1)C(=O)N[C@@H](Cc1c[nH]cn1)C(=O)N[C@H](C(=O)N[C@@H](C)C(N)=O)[C@@H](C)O [FHTA] (Ac-FHTA-NH2) | -2388 ± 94 | 2453 |  | 
2 |  | CC(=O)N[C@@H](Cc1c[nH]c2ccccc12)C(=O)N[C@@H](Cc1c[nH]cn1)C(=O)N1CCC[C@H]1C(=O)N[C@@H](C)C(N)=O [WHPA] (Ac-WHPA-NH2) | -6801 ± 318 | -2044 | 330 ± 25 | Change in binding affinity relative to FHTA [1]: no improvement
3 |  | CC(=O)N[C@@H](Cc1ccccc1)C(=O)N[C@@H](CC(N)=O)C(=O)N[C@H](C(=O)N[C@@H](C)C(N)=O)[C@@H](C)O [FNTA] (Ac-FNTA-NH2) | -4036 ± 177 | 346 | 613 ± 44 | 
4 |  | CC(=O)N[C@@H](Cc1ccccc1)C(=O)N[C@@H](Cc1c[nH]cn1)C(=O)N[C@@H](C)C(=O)N[C@@H](C)C(N)=O [FHAA] (Ac-FHAA-NH2) | -7948 ± 466 | -3636 | 675 ± 60 | 
5 |  | CC(=O)N[C@@H](Cc1ccccc1)C(=O)N[C@@H](Cc1c[nH]cn1)C(=O)N1CCC[C@H]1C(=O)N[C@@H](C)C(N)=O [FHPA] (Ac-FHPA-NH2) | -2155 ± 26 | 3218 | 113 ± 3 | 
6 |  | FPTA [N-acetylated, C-amide terminated tetrapeptide FPTA] |  |  |  | K D [1, 4]: no affinity for the protein; also recorded: No detectable binding
7 |  | CC(=O)N[C@@H](Cc1ccccc1)C(=O)N[C@@H](Cc1c[nH]cn1)C(=O)N[C@H](C(=O)NCC(N)=O)[C@@H](C)O [FHTG] (Ac-FHTG-NH2) | -5518 ± 924 | -1702 | 1590 ± 300 | Change in binding affinity relative to FHTA [1]: approximately sixfold drop in binding affinity
8 |  | CC(=O)N[C@@H](Cc1c[nH]c2ccccc12)C(=O)N[C@@H](Cc1c[nH]cn1)C(=O)N[C@H](C(=O)N[C@@H](C)C(N)=O)[C@@H](C)O [WHTA] (Ac-WHTA-NH2) | -2768 ± 34 | 2727 | 93 ± 3 | Change in binding affinity relative to FHTA [1]: increase the binding affinity of the peptide approximately threefold
9 | -14600 | FHTU tetrapeptide (U = α-amino butyric acid) |  |  |  | 
10 |  | CC[C@H](NC(=O)[C@@H](NC(=O)[C@H](Cc1c[nH]cn1)NC(=O)[C@H](Cc1ccccc1)NC(C)=O)[C@@H](C)O)C(N)=O [FHTU] (HELM PEPTIDE1{[ac].F.H.T.[Abu].[am]}$$$$V2.0) |  |  | 680 ± 51 | 
11 |  | RAD51 A89E: RAD51 with oligomerisation sequence FTTA mutated to FTTE (literature) (protein, UniProt Q06609 2-339, looked up, variant A89E) DNA repair protein RAD51 …: AMQMQLEANADTSVEEESFGPQPISRLEQCGINANDVKKLEEAGFHTVEAVAYAPKKELINIKGISEAKADKILAEAAKLVPMGFTTETEFHQRRSEIIQITTGSKELDKLLQGGIETGSITEMFGEFRTGKTQICHTLAVTCQLPIDRGGGEGKAMYIDTEGTFRPERLLAVAERYGLSGSDVLDNVAYARAFNTDHQTQLLYQASAMMVESRYALLIVDSATALYRTDYSGRGELSARQMHLARFLRMLLRLADEFGVAVVITNQVVAQVDGAAMFAADPKKPIGGNIIAHASTTRLYLRKGRGETRICKIYDSPCLPEAEAMFAINADGVGDAKD |  |  |  | Effect of mutation (binding) (RAD51): No binding
12 |  | RAD51 F86E: RAD51 with oligomerisation sequence FTTA mutated to ETTA (literature) (protein, UniProt Q06609 2-339, looked up, variant F86E) DNA repair protein RAD51 …: AMQMQLEANADTSVEEESFGPQPISRLEQCGINANDVKKLEEAGFHTVEAVAYAPKKELINIKGISEAKADKILAEAAKLVPMGETTATEFHQRRSEIIQITTGSKELDKLLQGGIETGSITEMFGEFRTGKTQICHTLAVTCQLPIDRGGGEGKAMYIDTEGTFRPERLLAVAERYGLSGSDVLDNVAYARAFNTDHQTQLLYQASAMMVESRYALLIVDSATALYRTDYSGRGELSARQMHLARFLRMLLRLADEFGVAVVITNQVVAQVDGAAMFAADPKKPIGGNIIAHASTTRLYLRKGRGETRICKIYDSPCLPEAEAMFAINADGVGDAKD |  |  |  | Effect of mutation (binding) (RAD51): No binding
13 | -7950 | Ac-FHAA-NH2 [FHAA tetrapeptide] |  |  |  | 
14 | -2390 | Ac-FHTA-NH2 [FHTA tetrapeptide (FxxA motif of BRC4 of BRCA2)] |  |  |  | Kd [2]: 280 µM
15 | -4040 | Ac-FNTA-NH2 [FNTA tetrapeptide] |  |  |  | 
16 | -2160 | Ac-FHPA-NH2 [FHPA tetrapeptide] |  |  |  | 
17 | -6800 | Ac-WHPA-NH2 [WHPA tetrapeptide] |  |  |  | Kd [3]: 690 µM
18 | -2770 | Ac-WHTA-NH2 [WHTA tetrapeptide] |  |  |  | 
19 | -5520 | Ac-FHTG-NH2 [FHTG tetrapeptide] |  |  |  | 
